Measurements from ChEMBL document CHEMBL1201862, “PubChem BioAssay data set” (2004).
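All cell lines were grown in 96-well plates and treated with compound for 48 hours. GI50 marks 50% less growth.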 The source made the active and inactive calls. No stated cut-off is given here; in the data, active = GI50 up to about 1.1 µM and inactive = higher.

Legend:
Test in all cases: growth of human tumour cells (NCI), 48 h
[1] = test system: A549
[2] = test system: COLO 205
[3] = test system: EKVX
[4] = test system: HCT-15
[5] = test system: HT-29
[6] = test system: K562
[7] = test system: OVCAR-4
[8] = test system: OVCAR-5
[9] = test system: RPMI-8226
[10] = test system: SF-539
[11] = test system: SK-MEL-2
[12] = test system: SK-MEL-5
[13] = test system: SNB-75
[14] = test system: SR
[15] = test system: SW-620
[16] = test system: HL-60
[17] = test system: SF-268
[18] = test system: A498

Compound	GI50 [1]	GI50 [2]	GI50 [3]	GI50 [4]	GI50 [5]	GI50 [6]	GI50 [7]	GI50 [8]	GI50 [9]	GI50 [10]	GI50 [11]	GI50 [12]	GI50 [13]	GI50 [14]	GI50 [15]	GI50 [16]	GI50 [17]	GI50 [18]
C=C(CCCO)[C@@H]1CC[C@@](C)(O)[C@H]1C	> 100 µM (inactive)	> 100 µM (inactive)	> 100 µM (inactive)	> 100 µM	> 100 µM (inactive)	> 100 µM (inactive)	> 100 µM (inactive)	> 100 µM (inactive)	> 100 µM (inactive)	> 100 µM (inactive)	> 100 µM (inactive)	> 100 µM (inactive)	33.1 µM (inactive)	> 100 µM (inactive)	> 100 µM (inactive)			
COc1cc(/C=C2\C(=O)N(C(=O)Cc3ccccc3)N=C2C)cc(OC)c1OC	> 100 µM (inactive)	> 100 µM (inactive)	> 100 µM (inactive)	> 100 µM	> 100 µM (inactive)	> 100 µM (inactive)	> 100 µM (inactive)	> 100 µM (inactive)	> 100 µM (inactive)	> 100 µM (inactive)	> 100 µM (inactive)	> 100 µM (inactive)	> 100 µM (inactive)	> 100 µM (inactive)	> 100 µM (inactive)	> 100 µM (inactive)	> 100 µM (inactive)	
O=C(CCC(=O)Nc1ccc(Cl)c(Cl)c1)CC(=O)c1ccc(Br)cc1	> 100 µM (inactive)	> 100 µM (inactive)	> 100 µM (inactive)	40.5 µM	> 100 µM (inactive)	47.8 µM (inactive)	> 100 µM (inactive)	> 100 µM (inactive)	> 100 µM (inactive)	> 100 µM (inactive)	> 100 µM (inactive)	> 100 µM (inactive)	61.7 µM (inactive)		> 100 µM (inactive)		> 100 µM (inactive)	> 100 µM (inactive)
CC(=O)NC(CCCCNC(=O)OCc1ccccc1)C(=O)NCc1ccccc1 (stereo not given)	> 100 µM (inactive)	> 100 µM (inactive)	> 100 µM (inactive)	> 100 µM	> 100 µM (inactive)	> 100 µM (inactive)	> 100 µM (inactive)	> 100 µM (inactive)	> 100 µM (inactive)	> 100 µM (inactive)	> 100 µM (inactive)	> 100 µM (inactive)	31.7 µM (inactive)		> 100 µM (inactive)		> 100 µM (inactive)	> 100 µM (inactive)
O=C(/C=C/c1ccccc1F)C(c1ccccc1)c1ccccc1	3.76 µM (inactive)		11.2 µM (inactive)	4.31 µM	2.75 µM (inactive)	3.7 µM (inactive)			3.53 µM (inactive)	2.2 µM (inactive)	2.51 µM (inactive)		4.76 µM (inactive)	3.41 µM (inactive)	3.83 µM (inactive)	3.07 µM (inactive)	3.11 µM (inactive)	
O=C(Cc1nc2ccccc2o1)C(=O)Nc1ccc(Cl)cc1Cl	> 100 µM (inactive)	> 100 µM (inactive)	> 100 µM (inactive)	> 100 µM	> 100 µM (inactive)	> 100 µM (inactive)	> 100 µM (inactive)	> 100 µM (inactive)	> 100 µM (inactive)	> 100 µM (inactive)	> 100 µM (inactive)		49.2 µM (inactive)	13.1 µM (inactive)	> 100 µM (inactive)		> 100 µM (inactive)	> 100 µM (inactive)
Nc1ccc(C(=O)NN2C(=O)C(Cl)C2c2ccccc2)cc1 (stereo not given)	> 100 µM (inactive)	> 100 µM (inactive)	> 100 µM (inactive)	> 100 µM	> 100 µM (inactive)	> 100 µM (inactive)	> 100 µM (inactive)	> 100 µM (inactive)	> 100 µM (inactive)	> 100 µM (inactive)	> 100 µM (inactive)	> 100 µM (inactive)	> 100 µM (inactive)		> 100 µM (inactive)		> 100 µM (inactive)	> 100 µM (inactive)
O=C(c1ccccc1)[C@@H]1C[C@H](Sc2ccccc2)c2cc(Cl)ccc2N1	28.5 µM (inactive)	45.5 µM (inactive)	10 µM (inactive)	25.4 µM	22.2 µM (inactive)	18.9 µM (inactive)	37.5 µM (inactive)	37.6 µM (inactive)	23.7 µM (inactive)	16.9 µM (inactive)	31.8 µM (inactive)	11.7 µM (inactive)	18.8 µM (inactive)	14 µM (inactive)	22.5 µM (inactive)		19 µM (inactive)	11.5 µM (inactive)
Cc1cc(O)no1 [HYMEXAZOL]	> 100 µM (inactive)	> 100 µM (inactive)	> 100 µM (inactive)	> 100 µM	> 100 µM (inactive)	> 100 µM (inactive)	> 100 µM (inactive)	> 100 µM (inactive)	> 100 µM (inactive)	> 100 µM (inactive)	> 100 µM (inactive)		> 100 µM (inactive)		> 100 µM (inactive)		> 100 µM (inactive)	
